Measured values as given in patent publication US20120029187A1, “HALOALKYLSULFONANILIDE DERIVATIVE” (Nissan Chemical Industries, Ltd., priority 2009, published 2012).

Experiments:
Type in all cases: in vivo
transplanted rice = assay: Test Example 1: preemergence treatment under submerged conditions, effect on crop; conditions: dose 2.52 g/a
How it was run: (§1)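 Submerged conditions, 4 cm water over alluvial soil. Weeds sown and 2.5-leaf rice transplanted; compound applied preemergence to water surface, doses in g per are. Greenhouse, 25 to 30° C., three weeks, then 0–5 mortality rating.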

water foxtail [1] = assay: Test Example 3: herbicidal effects in soil treatment; conditions: dose 3.2 g/a
How it was run: (§2)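 Seeds were sown in sterilized diluvial soil and covered with about 1.5 cm of soil. Compounds, formulated as emulsifiable concentrates and diluted with water, were sprayed evenly over the soil surface at set doses in g/a. Herbicidal effect was scored on a rating scale three weeks later.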

giant foxtail [2] = assay: as above; conditions: dose 3.2 g/a
How it was run: as §2

velvetleaf [3] = assay: as above; conditions: dose 3.2 g/a
How it was run: as §2

common chickweed [4] = assay: as above; conditions: dose 3.2 g/a
How it was run: as §2

common ragweed [5] = assay: as above; conditions: dose 3.2 g/a
How it was run: as §2

barnyardgrass [6] = assay: as above; conditions: dose 3.2 g/a
How it was run: as §2

common lambsquater [7] = assay: as above; conditions: dose 3.2 g/a
How it was run: as §2

beadstraw [8] = assay: as above; conditions: dose 3.2 g/a
How it was run: as §2

posumbu knotweed [9] = assay: as above; conditions: dose 3.2 g/a
How it was run: as §2

redroot pigweed [10] = assay: as above; conditions: dose 3.2 g/a
How it was run: as §2

large crabgrass [11] = assay: as above; conditions: dose 3.2 g/a
How it was run: as §2

Italian ryegrass [12] = assay: as above; conditions: dose 3.2 g/a
How it was run: as §2

water foxtail [13] = assay: Test Example 4: herbicidal effect in foliage treatment; conditions: dose 3.2 g/a, three weeks after the application
How it was run: (§3)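 Seeds were spot-sown in boxes of sterilized diluvial soil and raised in a greenhouse (25 to 30° C) for 14 days before a single foliar application. Compounds were applied as emulsifiable concentrates diluted with water, at predetermined doses in g/a. Injury was graded three weeks post-spray.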

giant foxtail [14] = assay: as above; conditions: dose 3.2 g/a, three weeks after the application
How it was run: as §3

velvetleaf [15] = assay: as above; conditions: dose 3.2 g/a, three weeks after the application
How it was run: as §3

common chickweed [16] = assay: as above; conditions: dose 3.2 g/a, three weeks after the application
How it was run: as §3

common ragweed [17] = assay: as above; conditions: dose 3.2 g/a, three weeks after the application
How it was run: as §3

barnyardgrass [18] = assay: as above; conditions: dose 3.2 g/a, three weeks after the application
How it was run: as §3

common lambsquater [19] = assay: as above; conditions: dose 3.2 g/a, three weeks after the application
How it was run: as §3

beadstraw [20] = assay: as above; conditions: dose 3.2 g/a, three weeks after the application
How it was run: as §3

posumbu knotweed [21] = assay: as above; conditions: dose 3.2 g/a, three weeks after the application
How it was run: as §3

redroot pigweed [22] = assay: as above; conditions: dose 3.2 g/a, three weeks after the application
How it was run: as §3

large crabgrass [23] = assay: as above; conditions: dose 3.2 g/a, three weeks after the application
How it was run: as §3

Italian ryegrass [24] = assay: as above; conditions: dose 3.2 g/a, three weeks after the application
How it was run: as §3

ducksalad [25] = assay: Test Example 1: herbicidal effects in preemergence treatment under submerged conditions; conditions: dose 2.52 g/a
How it was run: as §1

barnyardgrass [26] = assay: as above; conditions: dose 2.52 g/a
How it was run: as §1

bulrush [27] = assay: as above; conditions: dose 2.52 g/a
How it was run: as §1

ducksalad [28] = assay: Test Example 2: herbicidal effects during the vegetation period under submerged conditions; conditions: treatment during the vegetation period under submerged conditions; dose 2.52 g/a
How it was run: (§4)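 Barnyardgrass, bulrush and ducksalad were co-sown in alluvial soil flooded to 4 cm and grown in a greenhouse at 25 to 30° C. At the 1- or 2-leaf stage, water-diluted emulsifiable concentrates went onto the water surface at set doses (g/a). Herbicidal effect was scored three weeks later on a graded scale.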

barnyardgrass [29] = assay: as above; conditions: treatment during the vegetation period under submerged conditions; dose 2.52 g/a
How it was run: as §4

bulrush [30] = assay: as above; conditions: treatment during the vegetation period under submerged conditions; dose 2.52 g/a
How it was run: as §4

Row | SMILES | a: transplanted rice, effect on crop (evaluation scale 0-5) (transplanted rice) | herbicidal effect, G: water foxtail (water foxtail [1]) | herbicidal effect, E: giant foxtail (giant foxtail [2]) | herbicidal effect, I: velvetleaf (velvetleaf [3]) | herbicidal effect, N: common chickweed (common chickweed [4]) | herbicidal effect, J: common ragweed (common ragweed [5]) | herbicidal effect, A: barnyardgrass (barnyardgrass [6]) | herbicidal effect, L: common lambsquater (common lambsquater [7]) | herbicidal effect, O: beadstraw (beadstraw [8]) | herbicidal effect, M: posumbu knotweed (posumbu knotweed [9]) | herbicidal effect, K: redroot pigweed (redroot pigweed [10]) | herbicidal effect, D: large crabgrass (large crabgrass [11]) | herbicidal effect, H: Italian ryegrass (Italian ryegrass [12]) | G: water foxtail, herbicidal effect (water foxtail [13]) | E: giant foxtail, herbicidal effect (giant foxtail [14]) | I: velvetleaf, herbicidal effect (velvetleaf [15]) | N: common chickweed, herbicidal effect (common chickweed [16]) | J: common ragweed, herbicidal effect (common ragweed [17]) | A: barnyardgrass, herbicidal effect (barnyardgrass [18]) | L: common lambsquater, herbicidal effect (common lambsquater [19]) | other results
1 | CCC1CON(Cc2ccccc2NS(=O)(=O)C(F)(F)F)C(=O)O1 (centres unmarked) [III-5] | 0 (mortality of less than 5% (almost ineffective)) | 5 (mortality of 90% or above (nearly complete death)) | 5 (mortality of 90% or above (nearly complete death)) | 5 (mortality of 90% or above (nearly complete death)) | 5 (mortality of 90% or above (nearly complete death)) | 4 (mortality of at least 70% and less than 90%) | 5 (mortality of 90% or above (nearly complete death)) | 5 (mortality of 90% or above (nearly complete death)) | 4 (mortality of at least 70% and less than 90%) | 4 (mortality of at least 70% and less than 90%) | 0 (mortality of less than 5% (almost ineffective)) | 5 (mortality of 90% or above (nearly complete death)) | 5 (mortality of 90% or above (nearly complete death)) | 5 (mortality of 90% or above (nearly complete death)) | 3 (mortality of at least 40% and less than 70%) | 3 (mortality of at least 40% and less than 70%) | 3 (mortality of at least 40% and less than 70%) | 4 (mortality of at least 70% and less than 90%) | 5 (mortality of 90% or above (nearly complete death)) | 3 (mortality of at least 40% and less than 70%) | O: beadstraw, herbicidal effect (beadstraw [20]): 3 (mortality of at least 40% and less than 70%); M: posumbu knotweed, herbicidal effect (posumbu knotweed [21]): 0 (mortality of less than 5% (almost ineffective)); K: redroot pigweed, herbicidal effect (redroot pigweed [22]): 0 (mortality of less than 5% (almost ineffective)); D: large crabgrass, herbicidal effect (large crabgrass [23]): 0 (mortality of less than 5% (almost ineffective)); H: Italian ryegrass, herbicidal effect (Italian ryegrass [24]): 1 (mortality of at least 5% and less than 20%); C: ducksalad, herbicidal effect (evaluation scale 0-5) (ducksalad [25]): 5 (mortality of 90% or above (nearly complete death)); A: barnyardgrass, herbicidal effect (evaluation scale 0-5) (barnyardgrass [26]): 5 (mortality of 90% or above (nearly complete death)); B: bulrush, herbicidal effect (evaluation scale 0-5) (bulrush [27]): 5 (mortality of 90% or above (nearly complete death)); C: ducksalad, herbicidal effect (evaluation scale 0-5) (ducksalad [28]): 5 (mortality of 90% or above (nearly complete death)); A: barnyardgrass, herbicidal effect (evaluation scale 0-5) (barnyardgrass [29]): 5 (mortality of 90% or above (nearly complete death)); B: bulrush, herbicidal effect (evaluation scale 0-5) (bulrush [30]): 5 (mortality of 90% or above (nearly complete death))
2 | CCOC(=O)N(c1ccccc1CN1OCC(CC)OC1=O)S(=O)(=O)C(F)(F)F (centres unmarked) [III-6] | 0 (mortality of less than 5% (almost ineffective)) | 5 (mortality of 90% or above (nearly complete death)) | 4 (mortality of at least 70% and less than 90%) | 5 (mortality of 90% or above (nearly complete death)) | 5 (mortality of 90% or above (nearly complete death)) | 4 (mortality of at least 70% and less than 90%) | 5 (mortality of 90% or above (nearly complete death)) | 4 (mortality of at least 70% and less than 90%) | 4 (mortality of at least 70% and less than 90%) | 5 (mortality of 90% or above (nearly complete death)) | 3 (mortality of at least 40% and less than 70%) | 5 (mortality of 90% or above (nearly complete death)) | 5 (mortality of 90% or above (nearly complete death)) | 5 (mortality of 90% or above (nearly complete death)) | 5 (mortality of 90% or above (nearly complete death)) | 3 (mortality of at least 40% and less than 70%) | 4 (mortality of at least 70% and less than 90%) | 4 (mortality of at least 70% and less than 90%) | 5 (mortality of 90% or above (nearly complete death)) | 3 (mortality of at least 40% and less than 70%) | O: beadstraw, herbicidal effect (beadstraw [20]): 3 (mortality of at least 40% and less than 70%); M: posumbu knotweed, herbicidal effect (posumbu knotweed [21]): 5 (mortality of 90% or above (nearly complete death)); K: redroot pigweed, herbicidal effect (redroot pigweed [22]): 4 (mortality of at least 70% and less than 90%); D: large crabgrass, herbicidal effect (large crabgrass [23]): 3 (mortality of at least 40% and less than 70%); H: Italian ryegrass, herbicidal effect (Italian ryegrass [24]): 2 (mortality of at least 20% and less than 40%); C: ducksalad, herbicidal effect (evaluation scale 0-5) (ducksalad [25]): 5 (mortality of 90% or above (nearly complete death)); A: barnyardgrass, herbicidal effect (evaluation scale 0-5) (barnyardgrass [26]): 5 (mortality of 90% or above (nearly complete death)); B: bulrush, herbicidal effect (evaluation scale 0-5) (bulrush [27]): 5 (mortality of 90% or above (nearly complete death)); C: ducksalad, herbicidal effect (evaluation scale 0-5) (ducksalad [28]): 5 (mortality of 90% or above (nearly complete death)); A: barnyardgrass, herbicidal effect (evaluation scale 0-5) (barnyardgrass [29]): 5 (mortality of 90% or above (nearly complete death)); B: bulrush, herbicidal effect (evaluation scale 0-5) (bulrush [30]): 5 (mortality of 90% or above (nearly complete death))
